In patent US7067632B2, “VP22 proteins and uses thereof” (priority 1997, dated 2006):

Tests used:
Type in all cases: cell-based
[1] = system: acetylated form of tubulin; test: Acetylation of MTs: colocalisation immunofluorescence and Western blot with monoclonal antibody specific for acetylated tubulin
Excerpt: Acetylation of MTs was previously reported as a marker for MT stability (Piperno et al, J Cell Biol 104 (1987) 289–302). This has been shown by use of monoclonal antibody specific for the acetylated form of tubulin (obtainable from Sigma Chemical), in colocalisation assays by immunofluorescence, and by Western blot assays. This effect can be used as a biochemical marker for analysing and quantitating the level of MT stabilisation induced by VP22 or a variant or derviative thereof.

[2] = system: cellular microtubules (MTs) in COS 1 cells
[3] = system: cellular microtubules (MTs) in COS 1 cells; test: VP22 deletion mutants transfected into COS 1 cells, immunofluorescence with anti VP22 antibody AGV30: MT bundling and movement between cells; settings: transfected COS 1 cells
Excerpt: To broadly identify the region of VP22 involved in MT interaction, we utilised a range of C terminal deletion mutants of the protein. The plasmids encoding WT, del-267, del-192 and del-119 (FIG. 3a) forms of VP22 were transfected into COS 1 cells and analysed by immunofluorescence using the anti VP22 antibody AGV30. The del-267 and del-119 constructs comprise respectively aminoacids 1–267 inclusive, and aminoacids 1–119 inclusive of the wild type sequence of VP22 of HSV1 as disclosed in above-cited WO 97/05265 and references cited therein. The del-192 construct consists of aminoacids 1–191 inclusive plus a residue 192 mutated to leucine.
In these examples the longer sequences have increasing efficiency.

[4] = system: cellular microtubules (MTs) in COS 1 cells; test: Double immunofluorescence (anti-VP22, anti alpha tubulin) of COS 1 cells expressing VP22: co-localisation with and bundling of microtubules
Excerpt: To investigate the possibility that the pattern of localisation in cells expressing VP22 represents co-localisation with a component of the cytoskeleton, COS 1 cells were transfected with the VP22 expression plasmid pGE109. Forty hours after transfection, the cells were fixed with 100% methanol and double immunofluorescence carried out with antibodies against VP22 (polyclonal AGV30) and alpha tubulin (monoclonal anti alpha tubulin, Sigma).
COS 1 cells treated in the same manner were exposed to the MT stabilising drug taxol (10 microM) for 30 minutes prior to fixation. […] The MT binding property of VP22 can also be used to deliver coupling products between VP22 and other substances, such as taxol or a related compound to MTs.

“VP22: product of the herpes simplex virus type 1 (HSV 1) UL49 gene, the structural tegument protein VP22, 32 kD” was tested, and the “Acetylation of MTs (marker for MT stability)” value [1] was “associated with acetylation of the MTs”, the “Stabilisation of MTs against nocodazole depolymerisation” value ([2]; VP22 expressing COS 1 cells, nocodazole 500 ng/ml, 30 minutes) was “does not depolymerise the MTs” and the “Stabilisation of MTs against depolymerisation by cold” value ([2]; incubation of cells at 4 deg C) was “stabilised MTs against depolymerisation by 4 deg C. incubation”. For the same molecule, the “MT bundling / cytoplasmic filament formation by VP22 forms” value [3] was “VP22 in cytoplasmic filaments”, the “Movement of the protein between cells (transport)” value [3] was “surrounded by cells with VP22 in their nuclei” and the “Co-localisation with and bundling of the cellular MT network” value ([4]; COS 1 cells transfected with pGE109, fixed 40 h after transfection) was “colocalises and reorganises the cellular MT network into bundles”. For the same molecule, the “MT bundles in VP22 expressing cells exposed to taxol” value ([4]; VP22 expressing COS 1 cells plus taxol 10 microM, 30 minutes) was “these bundles were even more striking and again co-localised with VP22”.

For `COC(=O)Nc1nc2ccc(C(=O)c3cccs3)cc2[nH]1` [Nocodazole, nocodazole, reference compound], the “Effect of nocodazole on the MT network of untransfected cells” value [2] was “depolymerisation of the MT network”.

In the case of `CC(=O)O[C@H]1C(=O)[C@@]2(C)[C@H]([C@H](OC(=O)c3ccccc3)[C@]3(O)C[C@H](OC(=O)[C@H](O)[C@@H](NC(=O)c4ccccc4)c4ccccc4)C(C)=C1C3(C)C)[C@]1(OC(C)=O)CO[C@@H]1C[C@@H]2O` [taxol, reference compound], the “Effect on MTs in untransfected cells” value ([4]; untransfected COS 1 cells, taxol 10 microM, 30 minutes prior to fixation) is reported as “creating large bundles of MTs”.

“1–159: VP22 fragment consisting of residues 1–159” was tested, and the “MT bundling / cytoplasmic filament formation by VP22 forms” value [3] was “did not appear to retain the MT-bundling activity”.

With “1–172: variant VP22 protein consisting of residues 1–172 of the native VP22 of HSV1” the “MT bundling / cytoplasmic filament formation by VP22 forms” value [3] was “retain in some degree the ability to bundle microtubules”.
